Reference: patent US10894782B2, “Modulators of P97 AAA ATPase activity” (University of Pittsburgh—Of the Commonwealth System of …, priority 2016, dated 2021)

molecular target: P97 (Homo sapiens (Human), UniProt P55072); experiment: P97 Biomolgreen ATPase assay, 200 μM ATP; type: biochemical; settings: P97 Biomolgreen, IC50 (μM)
Sequence (P55072 whole entry): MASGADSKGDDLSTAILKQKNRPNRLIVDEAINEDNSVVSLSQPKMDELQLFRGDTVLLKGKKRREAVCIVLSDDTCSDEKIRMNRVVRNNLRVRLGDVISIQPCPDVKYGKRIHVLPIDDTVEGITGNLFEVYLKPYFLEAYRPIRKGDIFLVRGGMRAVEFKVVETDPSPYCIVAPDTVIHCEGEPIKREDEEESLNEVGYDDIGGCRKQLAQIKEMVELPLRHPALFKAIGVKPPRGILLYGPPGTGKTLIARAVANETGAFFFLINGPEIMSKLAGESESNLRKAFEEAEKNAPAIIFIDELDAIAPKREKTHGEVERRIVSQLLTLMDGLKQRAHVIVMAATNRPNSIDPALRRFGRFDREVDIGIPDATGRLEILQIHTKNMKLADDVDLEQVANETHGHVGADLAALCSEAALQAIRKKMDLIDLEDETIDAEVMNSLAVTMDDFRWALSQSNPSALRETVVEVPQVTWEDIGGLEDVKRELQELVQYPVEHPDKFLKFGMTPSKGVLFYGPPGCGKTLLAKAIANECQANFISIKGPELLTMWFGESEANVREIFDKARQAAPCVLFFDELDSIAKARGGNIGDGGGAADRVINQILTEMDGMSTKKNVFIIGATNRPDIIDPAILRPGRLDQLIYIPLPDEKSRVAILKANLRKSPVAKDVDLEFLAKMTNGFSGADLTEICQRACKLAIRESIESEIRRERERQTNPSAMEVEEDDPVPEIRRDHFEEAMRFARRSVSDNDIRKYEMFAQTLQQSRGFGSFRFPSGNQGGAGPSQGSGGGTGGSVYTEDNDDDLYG

IC50 [µM] | Structure (SMILES)
0.16 | [2H]C1([2H])C([2H])([2H])C([2H])([2H])C([2H])(Sc2nnc(COc3ccc(C#CC(C)OC(=O)NC(C)C)c(C)c3)n2-c2cccnc2)C1([2H])[2H] (stereo not shown) [Compound 1]
0.17 | [2H]C1([2H])C([2H])([2H])C([2H])([2H])C([2H])(Sc2nnc(COc3ccc(C#CC(C)N4CCOCC4)c(C)c3)n2-c2cccnc2)C1([2H])[2H] (stereo not shown) [Compound 3]
0.044 | [2H]C1([2H])C([2H])([2H])C([2H])([2H])C([2H])(Sc2nnc(COc3ccc(C#CCOC(=O)N4CCOCC4)c(C)c3)n2-c2cccnc2)C1([2H])[2H] [Compound 6]
0.034 | [2H]C1([2H])C([2H])([2H])C([2H])([2H])C([2H])(Sc2nnc(COc3ccc(C#CCOC(=O)NCC(F)(F)F)c(C)c3)n2-c2cccnc2)C1([2H])[2H] [Compound 20]
0.034 | [2H]C1([2H])C([2H])([2H])C([2H])([2H])C([2H])(Sc2nnc(COc3ccc(C#CCOC(=O)NCCN4CCN(C(C)C)CC4)c(C)c3)n2-c2cccnc2)C1([2H])[2H] [Compound 21]
0.032 | [2H]C1([2H])C([2H])([2H])C([2H])([2H])C([2H])(Sc2nnc(COc3ccc(C#CCOC(=O)NC(C)C)c(C)c3)n2-c2cccnc2)C1([2H])[2H] [Compound 23]
0.026 | [2H]C1([2H])C([2H])([2H])C([2H])([2H])C([2H])(Sc2nnc(COc3ccc(C#CCOC(=O)NC)c(C)c3)n2-c2cccnc2)C1([2H])[2H] [Compound 24]
0.068 | [2H]C1([2H])C([2H])([2H])C([2H])([2H])C([2H])(Sc2nnc(COc3ccc(C#CC(C)O)c(C)c3)n2-c2cccnc2)C1([2H])[2H] (stereo not shown) [Compound 26]
0.16 | [2H]C1([2H])C([2H])([2H])C([2H])([2H])C([2H])(Sc2nnc(COc3ccc(C#CC(C)OC)c(C)c3)n2-c2cccnc2)C1([2H])[2H] (stereo not shown) [Compound 27]
0.052 | [2H]C1([2H])C([2H])([2H])C([2H])([2H])C([2H])(Sc2nnc(COc3ccc(C#CCOC(=O)NCCc4ncnn4C)c(C)c3)n2-c2cccnc2)C1([2H])[2H] [Compound 31]
0.023 | [2H]C1([2H])C([2H])([2H])C([2H])([2H])C([2H])(Sc2nnc(COc3ccc(C#CCOC(=O)NCCN4CCCN(C(C)C)CC4)c(C)c3)n2-c2cccnc2)C1([2H])[2H] [Compound 32]
0.064 | [2H]C1([2H])C([2H])([2H])C([2H])([2H])C([2H])(Sc2nnc(COc3ccc(C#CCOC(=O)NCc4cc(C)on4)c(C)c3)n2-c2cccnc2)C1([2H])[2H] [Compound 35]
0.069 | [2H]C1([2H])C([2H])([2H])C([2H])([2H])C([2H])(Sc2nnc(COc3ccc(C#CCOC)c(C)c3)n2-c2cccnc2)C1([2H])[2H] [Compound 36]
0.07 | [2H]C1([2H])C([2H])([2H])C([2H])([2H])C([2H])(Sc2nnc(COc3ccc(C#CCOC(=O)N4CCC4)c(C)c3)n2-c2cccnc2)C1([2H])[2H] [Compound 37]
0.095 | [2H]C1([2H])C([2H])([2H])C([2H])([2H])C([2H])(Sc2nnc(COc3ccc(C#CCNC4CCN(C(C)C)CC4)c(C)c3)n2-c2cccnc2)C1([2H])[2H] [Compound 38]
0.16 | [2H]C1([2H])C([2H])([2H])C([2H])([2H])C([2H])(Sc2nnc(COc3ccc(C#CCN4CCS(=O)(=O)CC4)c(C)c3)n2-c2cccnc2)C1([2H])[2H] [Compound 41]
0.19 | [2H]C1([2H])C([2H])([2H])C([2H])([2H])C([2H])(Sc2nnc(COc3ccc(C#CCNC(=O)OC(C)(C)C)c(C)c3)n2-c2cccnc2)C1([2H])[2H] [Compound 46]

same assay, conditions: read-out: P97 Biomolgreen, IC50

IC50 [µM] | Structure (SMILES)
0.049 | C#Cc1ccc(OCc2nnc(SC3CCCC3)n2-c2cccnc2)cc1C [Compound 2]
0.044 | Cc1cc(OCc2nnc(SC3C=CCCC3)n2-c2cccnc2)ccc1C#CCN (stereo not shown) [Compound 4]
0.021 | Cc1cc(OCc2nnc(SC3CCCC3)n2-c2cccnc2)ccc1C#CC#N [Compound 5]
0.13 | Cc1ccc(S(=O)(=O)NCC#Cc2ccc(OCc3nnc(SC4C=CCCC4)n3-c3cccnc3)cc2C)cc1 (stereo not shown) [Compound 7]
0.039 | Cc1cc(OCc2nnc(SC3CCCC3)n2-c2cccnc2)ccc1C#CCN1CCOCC1 [Compound 8]
0.1 | Cc1cc(OCc2nnc(SC3CCCC3)n2-c2cccnc2)ccc1C#CCCc1ccccc1 [Compound 9]
0.092 | Cc1cc(OCc2nnc(SC3CCCC3)n2-c2cccnc2)ccc1C#CCNC(=O)C(C)(C)C [Compound 10]
0.007 | Cc1cc(OCc2nnc(SC3CCCC3)n2-c2cccnc2)ccc1C#CCNC(C)C [Compound 11]
0.029 | COC(=O)NCC#Cc1ccc(OCc2nnc(SC3CCCC3)n2-c2cccnc2)cc1C [Compound 12]
0.05 | Cc1cc(OCc2nnc(SC3CCCC3)n2-c2cccnc2)ccc1C#CCNS(C)(=O)=O [Compound 13]
0.035 | Cc1cc(OCc2nnc(SC3C=CCCC3)n2-c2cccnc2)ccc1C#CCNS(C)(=O)=O (stereo not shown) [Compound 14]
0.074 | Cc1cc(OCc2nnc(SC3C=CCCC3)n2-c2cccnc2)ccc1C#CCNS(=O)(=O)c1ccc(F)cc1 (stereo not shown) [Compound 15]
0.055 | Cc1cc(OCc2nnc(SC3C=CCCC3)n2-c2cccnc2)ccc1C#CCNC(C)C (stereo not shown) [Compound 16]
0.04 | Cc1cc(OCc2nnc(SC3C=CCCC3)n2-c2cccnc2)ccc1C#CCNC1CCCCC1 (stereo not shown) [Compound 17]
0.035 | Cc1cc(OCc2nnc(SC3C=CCCC3)n2-c2cccnc2)ccc1C#CCNS(=O)(=O)C1CC1 (stereo not shown) [Compound 18]
0.036 | Cc1cc(OCc2nnc(SC3C=CCCC3)n2-c2cccnc2)ccc1C#CCNC1CCN(C)CC1 (stereo not shown) [Compound 19]
0.027 | Cc1cc(OCc2nnc(SC3CCCC3)n2-c2cccnc2)ccc1C#CCOC(=O)NC(C)C [Compound 22]
0.066 | Cc1cc(OCc2nnc(SC3C=CCCC3)n2-c2cccnc2)ccc1C#CCN(C)S(C)(=O)=O (stereo not shown) [Compound 25]
0.096 | Cc1cc(OCc2nnc(SC3C=CCCC3)n2-c2cccnc2)ccc1C#CC(C)(C)O (stereo not shown) [Compound 28]
0.019 | Cc1cc(OCc2nnc(SC3C=CCCC3)n2-c2cccnc2)ccc1C#CCOC(=O)NCCN1CCN(C(C)C)CC1 (stereo not shown) [Compound 29]
0.011 | Cc1cc(OCc2nnc(SC3C=CCCC3)n2-c2cccnc2)ccc1C#CCOC(=O)NCC1(N2CCN(C(C)C)CC2)CCC1 (stereo not shown) [Compound 30]
0.043 | Cc1cc(OCc2nnc(SC3C=CCCC3)n2-c2cccnc2)ccc1C#CCNS(=O)(=O)N(C)C (stereo not shown) [Compound 33]
0.098 | Cc1cc(OCc2nnc(SC3C=CCCC3)n2-c2cccnc2)ccc1C#CC1(O)COC1 (stereo not shown) [Compound 34]
0.11 | Cc1cc(OCc2nnc(SC3C=CCCC3)n2-c2cccnc2)ccc1C#CCNCc1ccc(F)cc1 (stereo not shown) [Compound 39]
0.14 | Cc1cc(OCc2nnc(SC3C=CCCC3)n2-c2cccnc2)ccc1C#CCNC(=O)OC(C)(C)C (stereo not shown) [Compound 40]
0.048 | Cc1cc(OCc2nnc(SC3CCCC3)n2-c2cccnc2)ccc1C#CCNC(=O)OC(C)(C)C [Compound 43]
0.18 | Cc1cc(OCc2nnc(SC3CCCC3)n2-c2cccnc2)ccc1C#CCN1CCS(=O)(=O)CC1 [Compound 44]
0.64 | Cc1cc(OCc2nnc(SC3C=CCCC3)n2-c2cccnc2)ccc1C#CC(C)(C)NC(=O)OC(C)(C)C (stereo not shown) [Compound 45]
0.29 | Cc1cc(OCc2nnc(SC3C=CCCC3)n2-c2cccnc2)ccc1C#CCN1C(=O)c2ccccc2C1=O (stereo not shown) [Compound 47]
